Test results as given in US6204220A, “Substituted 2-oxo-3-alkynoic acids and methods of use thereof” (Rutgers, The State University of New Jersey, priority 1999, dated 2001).
Entries after “also recorded” stand apart in the source; their conditions may differ. Where two headings read alike, the source gives them in different places.

What was measured:
resolved E1 [1] = biological target: T1, resolved E1 (Escherichia coli, UniProt P0AFG8); assay: Inactivation of resolved E1 component (activity after reconstitution with E2-E3 subcomplex); type: biochemical, E. coli; settings: for remaining activity at 3700 µM: 3.7 mM inhibitor; for remaining activity at 500 µM: 15 min, read-out: residual activity of E1; for residual activity of E1: conditions as for fluorescence analysis
T1 construct: made in house; host or cells: resolved from PDHc expressed in E. coli JRG1342
T1 sequence (P0AFG8 2-887): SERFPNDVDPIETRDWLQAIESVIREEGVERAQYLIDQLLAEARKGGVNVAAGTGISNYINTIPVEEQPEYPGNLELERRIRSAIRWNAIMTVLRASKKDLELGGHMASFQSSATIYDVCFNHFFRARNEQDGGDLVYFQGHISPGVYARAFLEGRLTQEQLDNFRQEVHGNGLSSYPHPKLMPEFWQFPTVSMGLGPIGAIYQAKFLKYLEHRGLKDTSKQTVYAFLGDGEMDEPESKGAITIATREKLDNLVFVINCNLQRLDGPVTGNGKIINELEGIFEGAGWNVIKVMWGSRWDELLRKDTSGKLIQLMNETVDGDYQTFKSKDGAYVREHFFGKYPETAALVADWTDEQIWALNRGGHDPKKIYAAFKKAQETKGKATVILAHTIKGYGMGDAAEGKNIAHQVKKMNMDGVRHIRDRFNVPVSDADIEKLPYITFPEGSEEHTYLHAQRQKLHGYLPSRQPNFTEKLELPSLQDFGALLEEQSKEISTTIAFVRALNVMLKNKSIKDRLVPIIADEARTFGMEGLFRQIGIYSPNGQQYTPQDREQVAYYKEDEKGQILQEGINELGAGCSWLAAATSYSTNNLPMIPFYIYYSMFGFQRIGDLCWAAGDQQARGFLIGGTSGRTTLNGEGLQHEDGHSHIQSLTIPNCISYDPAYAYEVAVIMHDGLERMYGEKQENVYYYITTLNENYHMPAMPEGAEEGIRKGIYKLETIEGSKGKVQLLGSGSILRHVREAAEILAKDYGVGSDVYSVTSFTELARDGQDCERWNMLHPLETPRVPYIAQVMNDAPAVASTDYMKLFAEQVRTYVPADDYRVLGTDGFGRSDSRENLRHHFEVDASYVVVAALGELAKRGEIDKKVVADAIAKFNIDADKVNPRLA
Description: Resolution of the E1 component from PDHc. […] PDHc was dialyzed against 50 mM Tris buffer, pH 9.0, containing 0.1 mM benzamidine.HCl, 0.15 M NaCl, 0.1 mM PMSF for 2 h, before applying to a column equilibrated and eluted with the same buffer.
Activity and related measurements on PDHc. The overall enzymatic reaction of the PDH complex was assayed using a Varian DMS 300 spectrophotometer or the Cobas Bio (Roche Diagnostics, Somerville, N.J.) automated centrifugal analyzer, monitoring the pyruvate-dependent reduction of NAD^+ at 340 nm. The reaction medium contained in 1 mL (DMS 300) or 0.25 mL (Cobas-Bio) test volume: 0.1 M Tris-HCl, pH 8.0; 1 mM MgCl2; 2 mM sodium pyruvate; 2.5 mM NAD^+; 0.052-0.2 mM coenzyme A; 0.2 mM ThDP; and 2.6 mM DTT at 27° C. The reaction was initiated either by adding enzyme to a mixture of all other components, or by adding CoA.
One unit of activity is defined as the amount of NADH produced (μmol) per min per mg protein. The activity of resolved E1 was measured after reconstitution with excess E2-E3 subcomplex using the NADH assay for PDHc activity.
Inactivation of 1-lip and 3-lip PDH complexes and resolved E1 component by 2-oxo-3-alkynoic acids. Intact 1-lip or 3-lip PDH complexes (0.050-0.1 mg) or resolved E1 component (0.05-0.09 mg) were incubated in the dark with 5 mM MgCl2, […] of 2-oxo-3-alkynoic acids in 20 mM KH2 PO4 buffer, pH 7.5 at room temperature in a total volume 0.5 mL. The initial activity (100%) was assayed prior to the addition of 2-oxo-3-alkynoic acids. Samples (50 μL) were withdrawn periodically and diluted into 1 mL of assay solution, containing all components necessary for assay of the overall activity. The activity of untreated enzyme was stable during the time of inactivation.

resolved E1 [2] = biological target: T1, resolved E1; assay: Non-oxidative formation of acetoin and acetolactate by resolved E1; type: biochemical, E. coli
Description: Assay for the non-oxidative formation of acetoin and acetolactate by resolved E1. The reaction mixture contained in 0.8 mL of 50 mM KH2 PO4 buffer, pH 7.5: ThDP (1 mM); MgCl2 (2 mM); pyruvate (2 mM) and resolved E1 (0.04-0.1 mg). After 2 h at 37° C. the reaction was stopped by the addition of either 0.1 mL of 2.5 N NaOH (acetoin assay), or 0.02 mL of 6 N HCl (acetolactate assay), according to Kuwana et al. (1968). Tubes for acetolactate measurement were incubated for an additional 2 h at 37° C. to decarboxylate the acetolactate to acetoin. Acetoin was determined according to Westerfeld (1945). The activity is defined as nmoles of acetoin formed per min per mg protein.

[3] = Chemical stability of inhibitor on incubation in buffer before inactivation test; type: physicochemical; settings: 1 mM, room temperature, 20 mM KH2PO4 pH 7.5, 1 mM ThDP, 5 mM MgCl2, up to 28 min
Description: Kinetics of inactivation of 1-lip and 3-lip PDH complexes and resolved E1 in the presence of 2-oxo-3-alkynoic acids. Three analogs of pyruvate were tested as potential inhibitors of the PDHc and resolved E1: 2-oxo-3-butynoic acid; 2-oxo-3-pentynoic acid; and 2-oxo-3-heptynoic acid. Incubation in the presence of saturating ThDP (1 mM) and MgCl2 (5 mM) with any of the three compounds led to the loss of overall activity in a time- and concentration-dependent fashion. The plots of remaining activity versus time were biphasic: a rapid phase of inactivation was followed either by a slow phase at high concentrations of inhibitor or a plateau at low concentrations of inhibitor, as shown for 1-lip PDHc and resolved E1 with 2-oxo-3-butynoic acid in FIGS. 1A and 1B. The biphasic kinetics may be due to chemical instability of the inhibitors, especially 2-oxo-3-butynoic acid. […] When a fresh portion of 2-oxo-3-butynoicacid was added to PDHc whose activity had plateaued at about 30%, the activity rapidly declined to a new plateau at 6-8% of the original activity. In contrast, the PDHc activity continued to decline at a low rate when fresh 1-lip PDHc was added to the sample that had already declined to 30% (data not shown).

[4] = E1 treated with 3.7 mM inhibitor, At = 11.5%
[5] = E1 with 11.5% overall activity remaining

C#CC(=O)C(=O)O [2-oxo-3-butynoic acid, 2-Oxo-3-butynoic acid]
residual activity of E1 used for SH titration (resolved E1 [1]): 10% | k for inactivation of E1 (resolved E1 [1]; 0.11 mM inhibitor): 1.73 min⁻¹ | inhibition at 500 µM (resolved E1 [1]; 0.5 mM inhibitor, 20 min, 1 mM ThDP, 5 mM MgCl2): ~68% | remaining activity at 3700 µM (resolved E1 [1]; after G-25 chromatography, read-out: residual activity of resolved E1 in the overall reaction (At)): 11.5% | At after addition of DTT to previously inactivated E1 (resolved E1 [1]; 5 mM DTT added at At = 30%, after 60 min): 40% | protection of E1 component from modification by pyruvate (resolved E1 [1]; 5 mM pyruvate, 1 mM ThDP, 5 mM MgCl2): completely protected | reactivation of inactivated E1 by hydroxylamine (resolved E1 [1]; 0.2, 0.5 and 1 M hydroxylamine, neutral pH, 100 min or 15 h): failed to restore activity; also recorded: failure to reactivate | remaining activity at 500 µM (resolved E1 [1]; 0.5 mM inhibitor, absence of DTT): ~30% | remaining activity at 500 µM (resolved E1 [1]; 0.5 mM inhibitor, presence of 5 mM DTT): 63% | remaining activity at 3700 µM (resolved E1 [1]; E1 1.5 mg/mL, 0.1 mM ThDP, 1 mM MgCl2, read-out: E1 activity remaining before chromatography): 16% | Pyruvate:NAD+-oxidoreductase reaction (resolved E1 [1]; E1 treated with 3.7 mM inhibitor, At = 11.5%, after G-25): 0.343 ± 0.023 μmol/min/mg protein | residual activity of E1 (resolved E1 [1]; absence of added ThDP): 78-90% | residual activity of E1 (resolved E1 [1]; presence of ThDP): 40% | Ki (resolved E1 [1]; dissociation constant for initial reversible complex): 8.5 µM | kinact (resolved E1 [1]; rate constant at saturating inhibitor, resolved E1, read-out: ki E1 (converted)): 0.0298 s⁻¹ | kinact/KI (resolved E1 [1]; read-out: ki/Ki E1): 3500 M⁻¹ s⁻¹ | kapp, slow phase of inactivation (resolved E1 [1]; resolved E1, 0.11 mM inhibitor): 0.039 min⁻¹ | kapp, slow phase of inactivation (resolved E1 [1]; resolved E1, 1.1 mM inhibitor): 0.078 min⁻¹ | Acetoin production (resolved E1 [2]; [4]): 1.52 ± 0.08 nmol/min/mg protein | Acetolactate production (resolved E1 [2]; [4]): 0.51 ± 0.083 nmol/min/mg protein | Acetoin production relative to uninhibited E1 (resolved E1 [2]; [5]): 30% | Acetolactate production relative to uninhibited E1 (resolved E1 [2]; [5]): 36% | effect of incubating the inhibitor in buffer on its ability to inactivate 1-lip PDHc [3]: no significant effect
